In ChEMBL document CHEMBL1909046, “DrugMatrix in vitro pharmacology data”:

Columns and labels:
[1] = target: T1, Caspase-1 (Homo sapiens, UniProt P29466); parameters: species or system Escherichia coli;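 note: Caspase-1 enzyme inhibition assay with a peptide substrate; in other assays of this panel Not Active means under 50% inhibition at 10 µM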
T1 sequence (P29466 whole entry): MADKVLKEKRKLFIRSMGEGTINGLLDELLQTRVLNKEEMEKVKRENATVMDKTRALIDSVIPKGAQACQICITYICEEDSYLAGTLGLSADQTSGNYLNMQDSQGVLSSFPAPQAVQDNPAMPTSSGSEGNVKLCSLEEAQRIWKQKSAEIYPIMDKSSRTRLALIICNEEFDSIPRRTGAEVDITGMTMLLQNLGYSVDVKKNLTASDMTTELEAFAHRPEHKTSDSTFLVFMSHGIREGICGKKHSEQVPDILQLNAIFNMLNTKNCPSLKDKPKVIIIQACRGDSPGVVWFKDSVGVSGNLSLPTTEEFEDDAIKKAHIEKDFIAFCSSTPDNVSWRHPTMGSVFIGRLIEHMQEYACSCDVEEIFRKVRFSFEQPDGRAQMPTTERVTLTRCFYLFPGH

[2] = target: T2, Angiotensin-converting enzyme (Oryctolagus cuniculus, UniProt P12822); assay: biochemical; format: tissue-based, Lung;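 note: enzymatic inhibition of angiotensin-converting enzyme measured with FAPGG as the substrate; in other assays of this panel Not Active means under 50% inhibition at 10 µM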
T2 sequence (P12822 whole entry): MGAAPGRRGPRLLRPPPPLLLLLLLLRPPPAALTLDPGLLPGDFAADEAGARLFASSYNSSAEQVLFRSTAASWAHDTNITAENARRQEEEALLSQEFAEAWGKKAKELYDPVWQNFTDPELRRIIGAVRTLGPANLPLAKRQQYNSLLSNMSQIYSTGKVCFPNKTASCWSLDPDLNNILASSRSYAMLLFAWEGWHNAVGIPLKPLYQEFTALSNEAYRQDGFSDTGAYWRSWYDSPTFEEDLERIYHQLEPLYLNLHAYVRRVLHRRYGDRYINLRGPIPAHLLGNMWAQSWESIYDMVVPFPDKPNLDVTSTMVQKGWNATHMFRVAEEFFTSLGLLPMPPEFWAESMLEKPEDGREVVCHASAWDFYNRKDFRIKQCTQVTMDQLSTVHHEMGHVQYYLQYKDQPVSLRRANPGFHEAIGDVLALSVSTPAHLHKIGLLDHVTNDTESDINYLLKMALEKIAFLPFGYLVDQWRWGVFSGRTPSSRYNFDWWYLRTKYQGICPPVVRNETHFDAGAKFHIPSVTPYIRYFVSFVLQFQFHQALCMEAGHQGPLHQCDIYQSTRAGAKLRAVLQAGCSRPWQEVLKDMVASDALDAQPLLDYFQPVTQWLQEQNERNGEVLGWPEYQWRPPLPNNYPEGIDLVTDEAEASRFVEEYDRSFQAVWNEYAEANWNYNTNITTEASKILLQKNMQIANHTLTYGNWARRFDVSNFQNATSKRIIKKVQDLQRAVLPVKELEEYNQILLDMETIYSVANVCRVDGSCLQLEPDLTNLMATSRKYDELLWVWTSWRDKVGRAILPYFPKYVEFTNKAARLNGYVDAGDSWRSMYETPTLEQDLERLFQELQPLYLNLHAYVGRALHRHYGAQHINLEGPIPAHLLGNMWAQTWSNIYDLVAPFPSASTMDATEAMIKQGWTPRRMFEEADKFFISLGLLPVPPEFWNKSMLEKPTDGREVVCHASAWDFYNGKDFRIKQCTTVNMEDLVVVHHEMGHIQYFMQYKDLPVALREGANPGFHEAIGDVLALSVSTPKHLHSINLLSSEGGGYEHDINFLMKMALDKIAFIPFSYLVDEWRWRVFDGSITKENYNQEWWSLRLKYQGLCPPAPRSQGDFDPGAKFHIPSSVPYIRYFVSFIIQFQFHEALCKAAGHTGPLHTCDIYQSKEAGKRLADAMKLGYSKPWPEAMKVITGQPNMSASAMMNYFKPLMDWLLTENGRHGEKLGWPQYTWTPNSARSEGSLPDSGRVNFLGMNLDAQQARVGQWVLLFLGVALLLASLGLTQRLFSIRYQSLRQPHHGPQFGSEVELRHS

[3] = target: T3, Cytochrome P450 2A6 (Homo sapiens, UniProt P11509); details: bti-tn-5b1-4; note: in other assays of this panel Not Active means under 50% inhibition at 10 µM
T3 sequence (P11509 whole entry): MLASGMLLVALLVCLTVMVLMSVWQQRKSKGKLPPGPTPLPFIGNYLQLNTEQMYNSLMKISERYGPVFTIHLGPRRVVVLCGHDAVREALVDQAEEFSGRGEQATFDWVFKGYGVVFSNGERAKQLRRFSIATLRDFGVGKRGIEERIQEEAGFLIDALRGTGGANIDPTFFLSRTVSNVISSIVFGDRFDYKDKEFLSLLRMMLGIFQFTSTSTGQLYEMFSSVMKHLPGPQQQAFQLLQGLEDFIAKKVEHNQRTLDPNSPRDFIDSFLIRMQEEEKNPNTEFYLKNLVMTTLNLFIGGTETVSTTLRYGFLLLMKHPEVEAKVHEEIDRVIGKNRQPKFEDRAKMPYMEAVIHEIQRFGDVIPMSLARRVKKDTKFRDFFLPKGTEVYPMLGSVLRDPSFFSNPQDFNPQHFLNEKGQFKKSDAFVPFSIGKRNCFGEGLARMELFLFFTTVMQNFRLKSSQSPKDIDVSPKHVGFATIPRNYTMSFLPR

[4] = target: Aldo-keto reductase family 1 member B1 (Rattus norvegicus, UniProt P07943); format: tissue-based, Lens of camera-type eye;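 note: inhibition of aldose reductase enzyme activity, measured with DL-glyceraldehyde as the substrate; in other assays of this panel Not Active means under 50% inhibition at 10 µM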
[5] = DRUGMATRIX: Glutamate, Kainate radioligand binding (ligand: [3H] Kainic acid); format: cell membranes, Rattus norvegicus, Wistar, Brain, Membrane; details: Not Active = under 50% inhibition at 10 µM
[6] = target: Receptor tyrosine-protein kinase erbB-2 (Homo sapiens, UniProt P04626); assay: biochemical; format: cell-based, Insect cells; details: insect cells
[7] = target: T4, Alpha-2A adrenergic receptor (Homo sapiens, UniProt P08913); format: cell membranes, Sf9, Membrane; details: sf9; note: in other assays of this panel Not Active means under 50% inhibition at 10 µM
T4 sequence (P08913 whole entry): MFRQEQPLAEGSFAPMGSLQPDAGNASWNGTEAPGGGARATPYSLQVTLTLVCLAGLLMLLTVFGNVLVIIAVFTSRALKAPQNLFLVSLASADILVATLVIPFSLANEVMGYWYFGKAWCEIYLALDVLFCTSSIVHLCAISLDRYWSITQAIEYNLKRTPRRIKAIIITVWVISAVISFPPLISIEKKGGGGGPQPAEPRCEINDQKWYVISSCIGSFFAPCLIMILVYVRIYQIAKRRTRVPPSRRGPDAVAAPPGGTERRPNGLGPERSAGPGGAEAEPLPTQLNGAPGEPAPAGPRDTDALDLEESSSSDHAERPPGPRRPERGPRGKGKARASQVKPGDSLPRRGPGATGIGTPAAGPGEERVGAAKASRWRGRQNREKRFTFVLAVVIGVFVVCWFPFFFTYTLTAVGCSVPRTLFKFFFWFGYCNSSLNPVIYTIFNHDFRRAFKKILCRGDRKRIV

[8] = target: Matrix metalloproteinase-9 (Homo sapiens, UniProt P14780); format: cell-based
Matrix metalloproteinase-9, sequence (P14780 whole entry): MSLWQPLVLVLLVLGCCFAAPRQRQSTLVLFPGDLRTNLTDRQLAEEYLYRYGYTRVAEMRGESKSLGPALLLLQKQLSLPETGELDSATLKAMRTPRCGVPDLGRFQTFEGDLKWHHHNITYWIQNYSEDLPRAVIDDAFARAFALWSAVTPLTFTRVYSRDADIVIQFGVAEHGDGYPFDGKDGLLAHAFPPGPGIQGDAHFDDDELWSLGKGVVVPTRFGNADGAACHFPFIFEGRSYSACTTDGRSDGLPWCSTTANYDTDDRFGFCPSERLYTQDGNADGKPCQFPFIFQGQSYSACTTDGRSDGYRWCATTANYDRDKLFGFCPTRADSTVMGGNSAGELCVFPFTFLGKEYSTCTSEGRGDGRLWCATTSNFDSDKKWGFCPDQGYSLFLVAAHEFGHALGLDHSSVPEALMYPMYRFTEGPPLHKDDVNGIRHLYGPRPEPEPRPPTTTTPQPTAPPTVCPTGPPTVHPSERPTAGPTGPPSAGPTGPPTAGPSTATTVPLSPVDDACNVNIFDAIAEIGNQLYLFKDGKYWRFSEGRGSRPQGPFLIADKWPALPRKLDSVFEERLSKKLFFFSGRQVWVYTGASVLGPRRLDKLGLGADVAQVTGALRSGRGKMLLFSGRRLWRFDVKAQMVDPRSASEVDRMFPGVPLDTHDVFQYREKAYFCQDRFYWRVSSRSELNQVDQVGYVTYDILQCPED

CCCSc1ccc2nc(NC(=O)OC)[nH]c2c1 [ALBENDAZOLE]
Not Active: IC50 [1] | IC50 [2] | IC50 [3] | Ki [3] | IC50 [4] | IC50 [5] | Ki [5] | IC50 [6] | IC50 [7] | IC50 [8]

OXALIPLATIN
Not Active: IC50 [1] | Ki [1] | IC50 [2] | Ki [2] | IC50 [3] | Ki [3] | IC50 [4] | Ki [4] | IC50 [5] | Ki [5] | IC50 [6] | Ki [6] | IC50 [7] | Ki [7] | IC50 [8] | Ki [8]

Oc1cccc2cccnc12 [OXYQUINOLINE]
Not Active: IC50 [1] | IC50 [2] | IC50 [3] | Ki [3] | IC50 [4] | IC50 [5] | Ki [5] | IC50 [6] | IC50 [7] | IC50 [8]

Cc1[nH]cnc1CN1CCc2c(c3ccccc3n2C)C1=O [ALOSETRON]
Not Active: IC50 [1] | IC50 [2] | IC50 [3] | Ki [3] | IC50 [4] | IC50 [5] | Ki [5] | IC50 [6] | IC50 [7] | IC50 [8]

CCCc1cc(=O)[nH]c(=S)[nH]1 [PROPYLTHIOURACIL]
Not Active: IC50 [1] | IC50 [2] | IC50 [3] | Ki [3] | IC50 [4] | IC50 [5] | Ki [5] | IC50 [6] | IC50 [7] | IC50 [8]

CARBOPLATIN
Not Active: IC50 [1] | Ki [1] | IC50 [2] | Ki [2] | IC50 [3] | Ki [3] | IC50 [4] | Ki [4] | IC50 [5] | Ki [5] | IC50 [6] | Ki [6] | IC50 [7] | Ki [7] | IC50 [8] | Ki [8]

Nc1nc2c(ncn2COC(CO)CO)c(=O)[nH]1 [GANCICLOVIR]
Not Active: IC50 [1] | IC50 [2] | IC50 [3] | Ki [3] | IC50 [4] | IC50 [5] | Ki [5] | IC50 [6] | IC50 [7] | IC50 [8]

CC1(C)S[C@@H]2[C@H](NC(=O)[C@H](NC(=O)N3CCNC3=O)c3ccccc3)C(=O)N2[C@H]1C(=O)O [AZLOCILLIN]
Not Active: IC50 [1] | IC50 [2] | IC50 [3] | Ki [3] | IC50 [4] | IC50 [5] | Ki [5] | IC50 [6] | IC50 [7] | IC50 [8]

COc1ccc2cc(CC(=O)O)ccc2c1
Not Active: IC50 [1] | IC50 [2] | IC50 [3] | Ki [3] | IC50 [4] | IC50 [5] | Ki [5] | IC50 [6] | IC50 [7] | IC50 [8]

CCOC(=O)OC(C)OC1=C(C(=O)Nc2ccccn2)N(C)S(=O)(=O)c2ccccc21 (configuration not stated) [AMPIROXICAM]
Not Active: IC50 [1] | IC50 [2] | IC50 [3] | Ki [3] | IC50 [4] | IC50 [5] | Ki [5] | IC50 [6] | IC50 [7] | IC50 [8]

COCc1c(C(C)C)nc(C(C)C)c(/C=C/[C@@H](O)C[C@@H](O)CC(=O)O)c1-c1ccc(F)cc1 [CERIVASTATIN]
Not Active: IC50 [1] | IC50 [2] | IC50 [3] | Ki [3] | IC50 [4] | IC50 [5] | Ki [5] | IC50 [6] | IC50 [7] | IC50 [8]

O=C1NC(=O)C(c2ccccc2)(c2ccccc2)N1 [PHENYTOIN]
Not Active: IC50 [1] | IC50 [2] | IC50 [3] | Ki [3] | IC50 [4] | IC50 [5] | Ki [5] | IC50 [6] | IC50 [7] | IC50 [8]

O=C1CCc2cc(OCCCCc3nnnn3C3CCCCC3)ccc2N1 [CILOSTAZOL]
Not Active: IC50 [1] | IC50 [2] | IC50 [3] | Ki [3] | IC50 [4] | IC50 [5] | Ki [5] | IC50 [6] | IC50 [7] | IC50 [8]
